Source: publication PMC12518634, “The noncanonical function of liver-type phosphofructokinase potentiates the efficacy of HDAC inhibitors in cancer” (Signal Transduction and Targeted Therapy, 2025)
Where two headings read alike, the source gives them in different places.

Tests used:
[1] = test system: 783C-6; test: High-throughput drug screen, CellTiter-Glo viability, 72 h; format: cell-based, human; parameters: AUC: scale not given here; conditions: for AUC: area under the dose-response curve; for EC50: 72 h, read-out: EC50
Description: (§1) The cells were seeded and incubated with a gradient of concentrations of drugs for 72 h, after which the cell viability was assessed (Supplementary Fig. 1a). The drug library primarily comprises epigenetic drugs, including HDAC inhibitors, DNA methyltransferase inhibitors, and histone demethylase inhibitors, as well as conventional chemotherapies and kinase inhibitors (Supplementary Fig. 1b and Supplementary Table 1). […] To identify novel therapeutics against CCA, we conducted a high-throughput screen employing PerkinElmer’s integrated robotic Explorer G3 workstations. […] Following dilution to five specified concentrations, drugs were dispensed into 96-well plates in the sequence detailed in Supplementary Fig. 1a. The CCA cell lines were subsequently plated in 384-well plates at a density of 3000 cells per well in a 20 μL total volume. After a 24-h incubation, the compounds were added to the wells and incubated for 72 h. We then quantified cell viability via the CellTiter-Glo luminescent assay according to the manufacturer’s protocol. Signal detection was carried out on a Synergy2 plate reader operated by Gen5 software (BioTek). For data processing, the raw luminescence data were processed through the Breeze pipeline for curve fitting, yielding quality control metrics (e.g., Z-factors) and drug response parameters (AUC and DSS), as adapted from previous work.[54] Drug responses were evaluated on the basis of the drug sensitivity score (DSS), and a cutoff of ≥10 was used to define efficacy. The complete drug library and screening dataset are available in Supplementary Tables 1-3.
(§2) Supplementary Fig. 1. A high-throughput drug screen to identify drugs targeting CCA. a Schematic representation of the drug screening protocol. […] Each drug was tested at five different concentrations (10, 1, 0.1, 0.01, and 0.001 μM), and each treatment was replicated twice. b Classification of drugs used for screening.

[2] = test system: 1405R3; test: as above; format: cell-based, human; parameters: AUC: scale not given here; conditions: 1405R3 DSRT analysis; for AUC: area under the dose-response curve; for MIN: lower asymptote of fitted dose-response curve; for SLOPE: slope of fitted dose-response curve; for EC50: fitted dose-response curve, Min.Conc.tested 1, Max.Conc.tested 10000, 72 h, read-out: EC50
Description: as §1, §2

[3] = 783C-6 cells, DSS of DSRT analysis
[4] = 783C-6 cells, minimum of dose-response curve
[5] = 783C-6 cells, slope of fitted dose-response curve
[6] = 783C-6 DSRT analysis, DSS calculated from the dose-response curve
[7] = 783C-6 DSRT analysis, MIN of the fitted dose-response curve
[8] = 783C-6 DSRT analysis, slope of the fitted dose-response curve
[9] = 783C-6 cells, DSRT analysis, CellTiter-Glo viability, concentrations tested 1 to 10000 (unit inferred), GI50
[10] = Homo sapiens, CellTiter-Glo viability, GI50

CCOC(=O)NCCCC(=O)NCCc1ccccc1 [Santacruzamate A]
DSS [1, 3]: 0
AUC ([1]; 783C-6 cells): 2.2
MIN [1, 4]: 94.7
SLOPE [1, 5]: -0.7
AUC [2]: 1
DSS ([2]; drug sensitivity score): 0
MIN [2]: 92
SLOPE [2]: -2.5

Cc1cn(CCN2CCN(c3ccccc3-c3cc(C#N)cc(C(=O)NCCCN4CCCC4)c3)CC2)c2ccccc12 [LLY-507]
DSS [1, 6]: 3.9
MIN [1, 7]: 23.1
AUC ([1]; 783C-6 DSRT analysis): 36.6
EC50 ([1]; Homo sapiens): 3430 nM
DSS ([2]; DSS): 5.5
AUC [2]: 49.7
MIN [2]: 1.8
EC50 ([2]; Homo sapiens, CellTiter-Glo): 3190 nM

O=C(O)CCCc1ccccc1 [Sodium Phenylbutyrate]
DSS [1, 3]: 0
AUC ([1]; 783C-6 cells): 15
MIN [1, 4]: 91.2
AUC [2]: 9.3
DSS ([2]; drug sensitivity score): 0
MIN [2]: 90.9

CCN(CCCOc1ccc2c(Nc3cc(CC(=O)Nc4cccc(F)c4)n[nH]3)ncnc2c1)CCOP(=O)(O)O [Barasertib]
DSS [1, 6]: 0
MIN [1, 7]: 91.7
AUC ([1]; 783C-6 DSRT analysis): 11.5
DSS ([2]; DSS): 0
AUC [2]: 0.1
MIN [2]: 100

COc1ccc(CCc2nc3cc(-c4c(C)noc4C)ccc3n2C[C@H](C)N2CCOCC2)cc1Cl [SGC-CBP30]
DSS [1, 3]: 0
AUC ([1]; 783C-6 cells): 4.1
MIN [1, 4]: 86.4
AUC [2]: 28.3
DSS ([2]; drug sensitivity score): 0
MIN [2]: 84.6

O=C(O)C(Cc1c[nH]c2ccccc12)N1C(=O)c2ccccc2C1=O (centres unmarked) [RG108]
DSS [1, 3]: 0
AUC ([1]; 783C-6 cells): 9.4
MIN [1, 4]: 94
SLOPE [1, 5]: -0.1
AUC [2]: 0.1
DSS ([2]; drug sensitivity score): 0
MIN [2]: 99.8
SLOPE [2]: -1.1

O=C1[C@H](Cc2ccc(O)cc2)N2C(=O)CCN(C(=O)NCc3ccccc3)[C@H]2CN1Cc1cccc2ccccc12 [ICG-001]
DSS [1, 6]: 0
MIN [1, 7]: 90.7
AUC ([1]; 783C-6 DSRT analysis): 16.9
SLOPE [1, 8]: -2.5
DSS ([2]; DSS): 0
AUC [2]: 0.1
MIN [2]: 100
SLOPE [2]: -0.1

CN(C)Cc1c(C(=O)NCCOc2ccc(C(=O)NO)cc2)oc2ccccc12 [Abexinostat]
DSS [1, 6]: 5.3
MIN [1, 7]: 6.1
AUC ([1]; 783C-6 DSRT analysis): 48.2
EC50 ([1]; Homo sapiens): 3130 nM
DSS ([2]; DSS): 6
AUC [2]: 53
MIN [2]: 14.8
EC50 ([2]; Homo sapiens, CellTiter-Glo): 2420 nM

CC(=O)Nc1ccc(C(=O)Nc2ccccc2N)cc1 [Tacedinaline]
DSS [1, 3]: 0.3
AUC ([1]; 783C-6 cells): 7.5
MIN [1, 4]: 82.2
AUC [2]: 9.7
DSS ([2]; drug sensitivity score): 0.6
MIN [2]: 76.8

COc1cccc2c1C(=O)c1c(O)c3c(c(O)c1C2=O)C[C@@](O)(C(=O)CO)C[C@@H]3O[C@H]1C[C@H](N)[C@@H](O)[C@H](C)O1 [Epirubicin]
DSS [1, 6]: 13.9
MIN [1, 7]: 33.9
AUC ([1]; 783C-6 DSRT analysis): 113.1
EC50 ([1]; Homo sapiens): 194 nM
DSS ([2]; DSS): 7.1
AUC [2]: 64.9
MIN [2]: 27.7
EC50 ([2]; Homo sapiens, CellTiter-Glo): 1310 nM

COc1cc2c(Oc3ccc(NC(=O)C4(C(=O)Nc5ccc(F)cc5)CC4)cc3F)ccnc2cc1OCCCN1CCOCC1 [Foretinib]
DSS [1, 6]: 4.1
MIN [1, 7]: 32.7
AUC ([1]; 783C-6 DSRT analysis): 37.2
EC50 ([1]; Homo sapiens): 2850 nM
DSS ([2]; DSS): 2.9
AUC [2]: 27.8
MIN [2]: 51.5
EC50 ([2]; Homo sapiens, CellTiter-Glo): 2710 nM

C=CC(=O)N1CC[C@H](n2nc(C#Cc3cc(OC)cc(OC)c3)c3c(N)ncnc32)C1 [TAS-120]
DSS [1, 3]: 0
AUC ([1]; 783C-6 cells): 1.7
MIN [1, 4]: 94.4
AUC [2]: 7.2
DSS ([2]; drug sensitivity score): 0
MIN [2]: 91.3

COc1cc2c(Oc3ccc4[nH]c(C)cc4c3F)ncnc2cc1OCCCN1CCCC1 [Cediranib]
DSS [1, 6]: 2.4
MIN [1, 7]: 57.8
AUC ([1]; 783C-6 DSRT analysis): 23.3
EC50 ([1]; Homo sapiens): 2850 nM
DSS ([2]; DSS): 5.6
AUC [2]: 50.5
MIN [2]: 9.6
EC50 ([2]; Homo sapiens, CellTiter-Glo): 2810 nM

C/C(=N\NC(=O)c1cccc(S(=O)(=O)N2CCOCC2)c1)c1cc(Cl)ccc1O [SP2509]
EC50 [1, 9]: 2180 nM
DSS [1, 3]: 4.9
AUC ([1]; 783C-6 cells): 43.2
MIN [1, 4]: 35
SLOPE [1, 5]: -2.5
EC50 ([2]; CellTiter-Glo viability, GI50): 1570 nM
AUC [2]: 31.9
DSS ([2]; drug sensitivity score): 3.1
MIN [2]: 61
SLOPE [2]: -1.6

C#Cc1cccc(Nc2ncnc3cc(OC)c(OCCCCCCC(=O)NO)cc23)c1 [CUDC-101]
DSS [1, 6]: 8.7
MIN [1, 7]: 2.2
AUC ([1]; 783C-6 DSRT analysis): 75.9
EC50 ([1]; Homo sapiens): 1680 nM
DSS ([2]; DSS): 10
AUC [2]: 85.7
MIN [2]: 2.9
EC50 ([2]; Homo sapiens, CellTiter-Glo): 1310 nM

Cc1sc2c(c1C)C(c1ccc(Cl)cc1)=N[C@@H](CC(N)=O)c1nnc(C)n1-2 [CPI-203]
DSS [1, 6]: 0
MIN [1, 7]: 93.6
AUC ([1]; 783C-6 DSRT analysis): 3.2
SLOPE [1, 8]: -0.7
DSS ([2]; DSS): 13
AUC [2]: 111.9
EC50 ([2]; CellTiter-Glo): 210 nM
MIN [2]: 33.4
SLOPE [2]: -1.2

CCCCNNC(=O)c1ccc(Br)cc1 [UF010]
EC50 [1, 9]: 1280 nM
DSS [1, 3]: 2.1
AUC ([1]; 783C-6 cells): 22.5
MIN [1, 4]: 74.9
SLOPE [1, 5]: -2.4
EC50 ([2]; CellTiter-Glo viability, GI50): 2320 nM
AUC [2]: 21.1
DSS ([2]; drug sensitivity score): 2
MIN [2]: 67.1
SLOPE [2]: -2.5

CCNC(=O)C[C@@H]1N=C(c2ccc(Cl)cc2)c2cc(OC)ccc2-n2c(C)nnc21 [I-BET-762]
DSS [1, 6]: 0
MIN [1, 7]: 97
SLOPE [1, 8]: -2.5
DSS ([2]; DSS): 6
MIN [2]: 42
SLOPE [2]: -2.5

O=C(CCCCCCNC(=O)c1cnc(N(c2ccccc2)c2ccccc2)nc1)NO [Ricolinostat]
DSS [1, 3]: 2.2
AUC ([1]; 783C-6 cells): 22.4
MIN [1, 4]: 66.7
EC50 ([1]; Homo sapiens): 2140 nM
AUC [2]: 20.6
DSS ([2]; drug sensitivity score): 1.9
MIN [2]: 71.1
EC50 [2, 10]: 1950 nM

Cc1cc(Cl)ccc1OCCCC(=O)NO [Droxinostat]
DSS [1, 6]: 0
MIN [1, 7]: 90.5
AUC ([1]; 783C-6 DSRT analysis): 2.9
SLOPE [1, 8]: -1
DSS ([2]; DSS): 0
AUC [2]: 1.2
MIN [2]: 97.1
SLOPE [2]: -0.7

COc1ccc(N(C)c2nc(C)nc3ccccc23)cc1OCCCC(=O)NO [SKLB-23bb]
EC50 [1, 9]: 60.2 nM
DSS [1, 3]: 13.8
AUC ([1]; 783C-6 cells): 111
MIN [1, 4]: 50
SLOPE [1, 5]: -2.5
EC50 ([2]; CellTiter-Glo viability, GI50): 731 nM
AUC [2]: 79.5
DSS ([2]; drug sensitivity score): 8.2
MIN [2]: 33.2
SLOPE [2]: -0.8

Cn1c(CCCCCCC(=O)NO)nc2cc(N(CCCl)CCCl)ccc21 [Tinostamustine]
DSS [1, 3]: 7.1
AUC ([1]; 783C-6 cells): 62.6
MIN [1, 4]: 3.7
EC50 ([1]; Homo sapiens): 2260 nM
AUC [2]: 56
DSS ([2]; drug sensitivity score): 6.3
MIN [2]: 10
EC50 [2, 10]: 2420 nM

O=C1NC(=O)/C(=C/c2cccc(C(F)(F)F)c2)S1 [SMI-4a]
DSS [1, 3]: 0
AUC ([1]; 783C-6 cells): 2.1
MIN [1, 4]: 96.8
SLOPE [1, 5]: -2.5
AUC [2]: 0.1
DSS ([2]; drug sensitivity score): 0
MIN [2]: 99.6
SLOPE [2]: -1.3

CCCOc1ccc(/C=C2\SC(=O)NC2=O)cc1 [SMI-16a]
DSS [1, 3]: 0
AUC ([1]; 783C-6 cells): 5.7
MIN [1, 4]: 91.3
SLOPE [1, 5]: -0.5
AUC [2]: 0.1
DSS ([2]; drug sensitivity score): 0
MIN [2]: 100
SLOPE [2]: -0.1

O=C(CCCCCN1C(=O)c2cccc3cccc(c23)C1=O)NO [Scriptaid]
DSS [1, 3]: 8.6
AUC ([1]; 783C-6 cells): 74.4
MIN [1, 4]: 3.2
EC50 ([1]; Homo sapiens): 1710 nM
AUC [2]: 77.8
DSS ([2]; drug sensitivity score): 9
MIN [2]: 11.5
EC50 [2, 10]: 1330 nM

CCCC(=O)[O-].[Na+] [Sodium butyrate]
DSS [1, 3]: 0
AUC ([1]; 783C-6 cells): 0.1
MIN [1, 4]: 100
SLOPE [1, 5]: -0.1
AUC [2]: 0.1
DSS ([2]; drug sensitivity score): 0
MIN [2]: 100
SLOPE [2]: -0.1
